From patent US20100137394A1, “PYRAZOLE INHIBITORS OF WNT SIGNALING” (Grenentech, Inc., priority 2007, published 2010)

Tested on: Wnt pathway signaling
Test: Wnt Assay (Super8xTopflash reporter assay)
Format: cell-based
Conditions: 10T1/2 Super8xTopflash reporter cell line, Wnt3a in medium, luciferase signal read after 20-24 h; read-out: IC50, inhibition of Wnt pathway signaling activity
Experimental: 10T1/2 Super8xTopflash reporter cell line was generated by stable transfection of a Super8xTopflash reporter plasmid containing 8 tandem repeats of TCF4 binding sites upstream of Luciferase gene. Cells were seeded at 20 K/well density (in normal growth medium with 10% FBS and 0.4 mg/ml G418) in white 96-well plates with clear bottom (BD Falcon Microtest Optilux plate, Ref. 353947) and grown for 20-24 hours. Fesh growth medium was prepared without G418 and with appropriate Wnt3a concentration (concentration that gave 40-50% of maximum activation based on the dose-response curve performed for each new batch of protein; typically ˜0.1 ug/ml).
Old medium was removed from the 96-well plate, which was gently blotted on paper towel, then all relevant wells were replenished with fresh medium containing Wnt (100 ul/well).
The wells with highest compound concentrations (usually 10 or 30 uM) were filled separately with 150 ul of prepared medium containing both Wnt3a and the test compounds. Using a multichannel pipetman, 50 ul was drawn from these wells and dispensed and mixed gently into the next row of wells to achieve 1:3 dilution of compounds. […]
After 20-24 h the cells were lysed and the luciferase signal was read using Perkin Elmer luclite assay system, Cat. #6016911). […] Approximately 15 min later the plates were read on a TopCount machine.

With COc1ccc(CC(=O)N2CCC(c3ccc(NS(C)(=O)=O)cc3)=N2)cc1OC [compound 12] the IC50 was 218 nM.
